Test results reported in the OligoGym collection.
HELM strings list units from the 5' end as sugar, base in round brackets, then linkage (d deoxyribose, r ribose, m 2'-O-methyl, p phosphodiester). Strings are as the collection lists them; they lack the last nucleoside at the 3' end of the tested compound. [moe] = 2'-O-(2-methoxyethyl) (MOE); [sp] = phosphorothioate linkage; [m5C] = 5-methylcytosine

Target: UBE3A-ATS
Experiment: mouse, dose not given
Settings: ASO

| Substance | 3 h FOB score [score 0-7] |
| --- | --- |
| RNA1{[moe](G)[sp].[moe]([m5C])p.[moe]([m5C])p.[moe](T)p.[moe](T)p.d(T)[sp].d([m5C])[sp].d(T)[sp].d(A)[sp].d(T)[sp].d(T)[sp].d(T)[sp].d([m5C])[sp].d(A)[sp].d(G)[sp].[moe](A)p.[moe]([m5C])p.[moe]([m5C])[sp].[moe](G)}$$$$ (last 3' nucleoside missing) | 1 |
| RNA1{[moe](T)[sp].[moe](A)p.[moe](A)p.[moe](A)p.[moe](A)p.d(T)[sp].d([m5C])[sp].d([m5C])[sp].d(A)[sp].d(T)[sp].d(T)[sp].d(T)[sp].d(G)[sp].d(T)[sp].d([m5C])[sp].[moe]([m5C])p.[moe](A)p.[moe](G)[sp].[moe](T)}$$$$ (last 3' nucleoside missing) | 3.3 |
| RNA1{[moe](T)[sp].[moe](A)p.[moe](A)p.[moe](A)p.[moe](A)p.d([m5C])[sp].d(G)[sp].d([m5C])[sp].d(A)[sp].d(A)[sp].d(T)[sp].d(G)[sp].d(T)[sp].d(A)[sp].d(T)[sp].[moe]([m5C])p.[moe](A)p.[moe](G)[sp].[moe](G)}$$$$ (last 3' nucleoside missing) | 1 |
| RNA1{[moe](T)[sp].[moe](A)p.[moe](A)p.[moe](G)p.[moe](G)p.d(T)[sp].d([m5C])[sp].d(T)[sp].d(G)[sp].d(T)[sp].d(T)[sp].d(A)[sp].d(T)[sp].d(T)[sp].d([m5C])[sp].[moe](T)p.[moe]([m5C])p.[moe]([m5C])[sp].[moe]([m5C])}$$$$ (last 3' nucleoside missing) | 0.8 |
| RNA1{[moe](T)[sp].[moe](A)p.[moe](A)p.[moe](G)p.[moe](T)p.d(A)[sp].d(T)[sp].d(A)[sp].d(G)[sp].d(A)[sp].d(T)[sp].d(G)[sp].d([m5C])[sp].d([m5C])[sp].d(T)[sp].[moe]([m5C])p.[moe](T)p.[moe]([m5C])[sp].[moe]([m5C])}$$$$ (last 3' nucleoside missing) | 3.7 |
| RNA1{[moe](T)[sp].[moe](A)p.[moe](A)p.[moe]([m5C])p.[moe](T)p.d(G)[sp].d([m5C])[sp].d(T)[sp].d(T)[sp].d([m5C])[sp].d(A)[sp].d([m5C])[sp].d([m5C])[sp].d(A)[sp].d(T)[sp].[moe](T)p.[moe](T)p.[moe](T)[sp].[moe](G)}$$$$ (last 3' nucleoside missing) | 0 |
| RNA1{[moe](T)[sp].[moe](A)p.[moe](G)p.[moe](A)p.[moe](T)p.d(T)[sp].d(G)[sp].d(G)[sp].d(G)[sp].d([m5C])[sp].d(T)[sp].d(T)[sp].d(T)[sp].d(A)[sp].d(G)[sp].[moe](A)p.[moe](G)p.[moe](G)[sp].[moe](T)}$$$$ (last 3' nucleoside missing) | 5 |
| RNA1{[moe](T)[sp].[moe](A)p.[moe](G)p.[moe](G)p.[moe](G)p.d(T)[sp].d(G)[sp].d(G)[sp].d(T)[sp].d(T)[sp].d(G)[sp].d(G)[sp].d(T)[sp].d(T)[sp].d([m5C])[sp].[moe](A)p.[moe](A)p.[moe](A)[sp].[moe](A)}$$$$ (last 3' nucleoside missing) | 5.7 |
| RNA1{[moe](T)[sp].[moe](A)p.[moe](G)p.[moe](G)p.[moe](T)p.[moe]([m5C])p.d(A)[sp].d(A)[sp].d([m5C])[sp].d([m5C])[sp].d(A)[sp].d(A)[sp].d(T)[sp].d(T)[sp].d(T)[sp].d(G)[sp].[moe]([m5C])p.[moe](T)[sp].[moe](A)}$$$$ (last 3' nucleoside missing) | 5 |
| RNA1{[moe](T)[sp].[moe](A)p.[moe](G)p.[moe](G)p.[moe](T)p.d([m5C])[sp].d(A)[sp].d(A)[sp].d([m5C])[sp].d([m5C])[sp].d(A)[sp].d(A)[sp].d(T)[sp].d(T)[sp].d(T)[sp].[moe](G)p.[moe]([m5C])p.[moe](T)[sp].[moe](A)}$$$$ (last 3' nucleoside missing) | 0 |
| RNA1{[moe](T)[sp].[moe](A)p.[moe](G)p.[moe](G)p.[moe]([m5C])p.d(T)[sp].d(G)[sp].d(G)[sp].d(G)[sp].d([m5C])[sp].d([m5C])[sp].d(T)[sp].d([m5C])[sp].d(A)[sp].d(G)[sp].[moe]([m5C])p.[moe](G)p.[moe](T)[sp].[moe](A)}$$$$ (last 3' nucleoside missing) | 3.5 |
| RNA1{[moe](T)[sp].[moe](A)p.[moe](G)p.[moe](G)p.d(T)[sp].d([m5C])[sp].d(A)[sp].d(A)[sp].d([m5C])[sp].d([m5C])[sp].d(A)[sp].d(A)[sp].d(T)[sp].d(T)[sp].[moe](T)p.[moe](G)p.[moe]([m5C])p.[moe](T)[sp].[moe](A)}$$$$ (last 3' nucleoside missing) | 0 |
| RNA1{[moe](T)[sp].[moe](A)p.[moe](G)p.[moe](T)p.[moe](T)p.d(T)[sp].d([m5C])[sp].d(A)[sp].d([m5C])[sp].d([m5C])[sp].d(G)[sp].d(A)[sp].d(A)[sp].d(A)[sp].d(G)[sp].[moe](T)p.[moe](A)p.[moe]([m5C])[sp].[moe](A)}$$$$ (last 3' nucleoside missing) | 2.5 |
| RNA1{[moe](T)[sp].[moe](A)p.[moe](G)p.[moe](T)p.[moe]([m5C])p.d(T)[sp].d(A)[sp].d(A)[sp].d(G)[sp].d(G)[sp].d([m5C])[sp].d(A)[sp].d(G)[sp].d(T)[sp].d([m5C])[sp].[moe](A)p.[moe](G)p.[moe](G)[sp].[moe](G)}$$$$ (last 3' nucleoside missing) | 6 |
| RNA1{[moe](T)[sp].[moe](A)p.[moe](T)p.[moe](A)p.[moe](G)p.d(G)[sp].d(G)[sp].d(T)[sp].d(G)[sp].d(G)[sp].d(T)[sp].d(T)[sp].d(G)[sp].d(G)[sp].d(T)[sp].[moe](T)p.[moe]([m5C])p.[moe](A)[sp].[moe](A)}$$$$ (last 3' nucleoside missing) | 6 |
| RNA1{[moe](T)[sp].[moe](A)p.[moe](T)p.[moe](G)p.[moe](T)p.d(A)[sp].d(G)[sp].d([m5C])[sp].d(T)[sp].d([m5C])[sp].d(A)[sp].d(G)[sp].d([m5C])[sp].d(T)[sp].d([m5C])[sp].[moe](A)p.[moe](A)p.[moe](T)[sp].[moe](G)}$$$$ (last 3' nucleoside missing) | 1 |
| RNA1{[moe](T)[sp].[moe](A)p.[moe](T)p.[moe](T)p.[moe](G)p.[moe](G)p.d(T)[sp].d([m5C])[sp].d(A)[sp].d(T)[sp].d([m5C])[sp].d(T)[sp].d([m5C])[sp].d(G)[sp].d(G)[sp].d(G)[sp].[moe](T)p.[moe](A)[sp].[moe](T)}$$$$ (last 3' nucleoside missing) | 4 |
| RNA1{[moe](T)[sp].[moe](A)p.[moe](T)p.[moe](T)p.[moe](G)p.d(G)[sp].d(T)[sp].d([m5C])[sp].d(A)[sp].d(T)[sp].d([m5C])[sp].d(T)[sp].d([m5C])[sp].d(G)[sp].d(G)[sp].[moe](G)p.[moe](T)p.[moe](A)[sp].[moe](T)}$$$$ (last 3' nucleoside missing) | 3.3 |
| RNA1{[moe](T)[sp].[moe](A)p.[moe](T)p.[moe](T)p.[moe](G)p.d([m5C])[sp].d([m5C])[sp].d(T)[sp].d(T)[sp].d([m5C])[sp].d(A)[sp].d([m5C])[sp].d(T)[sp].d(G)[sp].d([m5C])[sp].[moe](T)p.[moe](G)p.[moe]([m5C])[sp].[moe]([m5C])}$$$$ (last 3' nucleoside missing) | 3.2 |
| RNA1{[moe](T)[sp].[moe](A)p.[moe](T)p.[moe](T)p.d(G)[sp].d(G)[sp].d(T)[sp].d([m5C])[sp].d(A)[sp].d(T)[sp].d([m5C])[sp].d(T)[sp].d([m5C])[sp].d(G)[sp].[moe](G)p.[moe](G)p.[moe](T)p.[moe](A)[sp].[moe](T)}$$$$ (last 3' nucleoside missing) | 4 |
| RNA1{[moe](T)[sp].[moe](G)[sp].[moe]([m5C])[sp].[moe]([m5C])[sp].[moe](A)[sp].d(T)[sp].d([m5C])[sp].d(T)[sp].d(T)[sp].d([m5C])[sp].d(A)[sp].d(A)[sp].d(G)[sp].d(A)[sp].d([m5C])[sp].[moe](T)[sp].[moe](A)[sp].[moe](A)[sp].[moe](G)}$$$$ (last 3' nucleoside missing) | 6.8 |
| RNA1{[moe](T)[sp].[moe](G)p.[moe](A)p.[moe](G)[sp].d([m5C])[sp].d(T)[sp].d(A)[sp].d(T)[sp].d([m5C])[sp].d(T)[sp].d(G)[sp].d(T)[sp].[moe](A)p.[moe]([m5C])p.[moe](A)p.[moe](A)[sp].[moe](A)}$$$$ (last 3' nucleoside missing) | 3 |
| RNA1{[moe](T)[sp].[moe](G)p.[moe](A)p.[moe](G)p.[moe]([m5C])[sp].d(T)[sp].d(A)[sp].d(T)[sp].d([m5C])[sp].d(T)[sp].d(G)[sp].d(T)[sp].d(A)[sp].[moe]([m5C])p.[moe](A)p.[moe](A)[sp].[moe](A)}$$$$ (last 3' nucleoside missing) | 4.7 |
| RNA1{[moe](T)[sp].[moe](G)p.[moe](A)p.[moe](G)p.[moe]([m5C])p.[moe](T)[sp].d(A)[sp].d(T)[sp].d([m5C])[sp].d(T)[sp].d(G)[sp].d(T)[sp].d(A)[sp].d([m5C])[sp].[moe](A)p.[moe](A)[sp].[moe](A)}$$$$ (last 3' nucleoside missing) | 5 |
| RNA1{[moe](T)[sp].[moe](G)p.[moe](A)p.[moe](G)p.[moe]([m5C])p.[moe](T)p.d(A)[sp].d(T)[sp].d([m5C])[sp].d(T)[sp].d(G)[sp].d(T)[sp].d(A)[sp].d([m5C])[sp].d(A)[sp].d(A)[sp].[moe](A)p.[moe](A)[sp].[moe](T)}$$$$ (last 3' nucleoside missing) | 5.3 |
| RNA1{[moe](T)[sp].[moe](G)p.[moe](A)p.[moe](G)p.[moe]([m5C])p.d(T)[sp].d(A)[sp].d(T)[sp].d([m5C])[sp].d(T)[sp].d(G)[sp].d(T)[sp].d(A)[sp].d([m5C])[sp].d(A)[sp].[moe](A)p.[moe](A)p.[moe](A)[sp].[moe](T)}$$$$ (last 3' nucleoside missing) | 6.2 |
| RNA1{[moe](T)[sp].[moe](G)p.[moe](A)p.[moe](G)p.d([m5C])[sp].d(T)[sp].d(A)[sp].d(T)[sp].d([m5C])[sp].d(T)[sp].d(G)[sp].d(T)[sp].d(A)[sp].d([m5C])[sp].[moe](A)p.[moe](A)p.[moe](A)p.[moe](A)[sp].[moe](T)}$$$$ (last 3' nucleoside missing) | 5.5 |
